# Data as given in PubChem BioAssay (NCI).
# Several values for one entry are separate records, joined by “and”; a condition that tells them apart may be missing. Identical values can stand only once.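 Grown in 96-well plates, cells were treated for 48 hours with each compound at five concentrations. Insufficient inhibition: endpoint recorded as highest concentration tested. GI50 = concentration required for 50% inhibition of growth. Definition used: TGI = concentration required for complete inhibition of growth.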
# Assays:
# Test in all cases: inhibition of tumour cell growth, NCI panel, 48 h
# OVCAR-5 ovarian = test system: OVCAR-5 ovarian
# UO-31 renal = test system: UO-31 renal
# HL-60(TB) leukemia = test system: HL-60(TB) leukemia
# K-562 leukemia = test system: K-562 leukemia
# MDA-MB-231 breast = test system: MDA-MB-231 breast
# SN12C renal = test system: SN12C renal
# SNB-75 CNS = test system: SNB-75 CNS
# SF-539 CNS = test system: SF-539 CNS
# MCF7 breast = test system: MCF7 breast
# NCI-H460 lung = test system: NCI-H460 lung
Compound,GI50 (OVCAR-5 ovarian),TGI (OVCAR-5 ovarian),GI50 (UO-31 renal),TGI (UO-31 renal),GI50 (HL-60(TB) leukemia),GI50 (K-562 leukemia),TGI (K-562 leukemia),GI50 (MDA-MB-231 breast),TGI (MDA-MB-231 breast),GI50 (SN12C renal),TGI (SN12C renal),GI50 (SNB-75 CNS),TGI (SNB-75 CNS),GI50 (SF-539 CNS),TGI (SF-539 CNS),GI50 (MCF7 breast),TGI (MCF7 breast),TGI (HL-60(TB) leukemia) [µM],GI50 (NCI-H460 lung) [µM],TGI (NCI-H460 lung) [µM]
CCC(C)(CC(C)(C)C(=O)NCC(=O)NC(Cc1ccccc1)C(=O)NC(Cc1ccccc1)C(=O)NCC(=O)NC1CC(OC2CC(O)(C(=O)CO)Cc3c(O)c4c(c(O)c32)C(=O)c2c(OC)cccc2C4=O)OC(C)C1O)C(=O)NCC(C)O (stereo not given),> 150 µg/mL,> 150 µg/mL,> 150 µg/mL,> 150 µg/mL,1.32 µg/mL and 62.8 µg/mL,86.3 µg/mL,> 150 µg/mL,119 µg/mL,> 150 µg/mL,81.2 µg/mL,> 150 µg/mL,16.1 µg/mL,> 150 µg/mL,53 µg/mL,> 150 µg/mL,22 µg/mL,> 150 µg/mL,,,
COc1cc2c(c(OC)c1OC)-c1ccc(SC)c(=O)cc1C(CO)C2 (stereo not given),> 100 µM,> 100 µM,< 0.01 µM,> 100 µM,< 0.01 µM,< 0.01 µM,23.7 µM,,,< 0.01 µM,> 100 µM,< 0.01 µM,,< 0.01 µM,,,,0.0439,< 0.01,
CC/C=C1/C(=O)C=C[C@@H]1C/C=C\CCCC(=O)OC,4.73 µM,15.1 µM,2.24 µM,5.43 µM,2.17 µM,0.767 µM,> 100 µM,4.43 µM,15.4 µM,3.08 µM,8.58 µM,12.9 µM,33.2 µM,3.66 µM,13.7 µM,1.21 µM,11 µM,6.94,,
Nc1ccnc(=O)[nH]1,,> 100 µM,,> 100 µM,,,> 100 µM,,,,> 100 µM,,> 100 µM,,> 100 µM,,,> 100,,> 100
CC(=O)CC(=O)OC1CC(C)CCC1C(C)C (stereo not given),,> 100 µM,,> 100 µM,,,> 100 µM,,,,> 100 µM,,> 100 µM,,> 100 µM,,,40.2,,> 100
OC(c1ccccc1)(c1ccccc1)c1ccncc1,,> 100 µM,,> 100 µM,,,> 100 µM,,,,> 100 µM,,> 100 µM,,> 100 µM,,,> 100,,> 100
CCc1cc(C(=O)OC)cn1C(=N)c1ccc(Cl)cc1,,> 100 µM,,> 100 µM,,,> 100 µM,,,,> 100 µM,,> 100 µM,,> 100 µM,,,> 100,,> 100
C[C@H]1[C@H](C)CC[C@]2(CO)CC[C@]3(C)C(=CC[C@@H]4[C@@]5(C)CCCNC(C)(C)[C@@H]5CC[C@]43C)[C@H]12,1.69 µM,3.18 µM,1.54 µM,2.99 µM,,0.471 µM,2.02 µM,1.88 µM,3.48 µM,1.64 µM,3.11 µM,1.49 µM,2.9 µM,1.69 µM,3.16 µM,1.58 µM,3.39 µM,,1.78,3.35
COc1cnc2c(c1)C(=O)c1c-2n(CCCn2ccnc2)c(=O)c2cc(F)ccc12,0.119 µM,0.789 µM,< 0.01 µM,0.147 µM,0.0363 µM,,,0.35 µM,2.17 µM,< 0.01 µM,> 100 µM,0.187 µM,21.8 µM,0.0245 µM,0.195 µM,,,0.311,< 0.01,0.133
COc1ccc(C2=CC(c3ccc4c(c3)OCO4)c3c(c4ccccc4oc3=O)O2)cc1OC (stereo not given),,> 100 µM,,> 100 µM,,,,,> 100 µM,,> 100 µM,,> 21.4 µM,,> 22.5 µM,,> 100 µM,1.67,,> 100
Cn1cc(C(=O)NCCC(=N)N)cc1NC(=O)C1=[N+](C)C=C(NC(=O)c2cccc(C(=O)NC3=CC(C(=O)Nc4cc(C(=O)NCCC(=N)N)cn4C)=[N+](C)C3)c2)C1,,,,> 100 µM,,,> 100 µM,,,,> 100 µM,,> 100 µM,,> 100 µM,,,> 100,,> 100
CCOC(=O)N1CCN(C=S)CC1,,> 100 µM,,> 100 µM,,,> 100 µM,,,,> 100 µM,,> 100 µM,,> 100 µM,,,> 100,,> 100
CCCCNc1nc(C#N)c(N)s1,,> 100 µM,,> 100 µM,,,> 100 µM,,,,> 100 µM,,> 100 µM,,> 100 µM,,,> 100,,> 100
COc1cc(/C=C2/C(=O)N(C(=O)OCC(C)C)C(Cc3cc(OC)c(OC)c(C)c3OC)C(=O)N2Cc2ccccc2)c(OC)c(C)c1OC (stereo not given),,> 100 µM,,> 100 µM,,,> 100 µM,,,,> 100 µM,,> 100 µM,,> 100 µM,,,> 100,,> 100
CCN(CC)c1c(C(=O)/C=C/c2ccc(OC)cc2)c(-c2ccccc2)nn(C)c1=O,,28 µM,,> 100 µM,,,49.9 µM,,,,78.4 µM,,,,45.9 µM,,,43.9,,35.4
COc1cc(C(=O)O[C@H](C(=O)NCCCCCNC(=O)[C@@H](OC(=O)c2cc(OC)cc3c(C)cccc23)[C@]2(C)CO2)[C@]2(C)CO2)c2cccc(C)c2c1,1.52 µM,5.61 µM,2.24 µM,> 100 µM,,0.437 µM,> 36.3 µM,0.893 µM,4.03 µM,0.364 µM,1.15 µM,0.911 µM,3.43 µM,0.119 µM,0.587 µM,< 0.0123 µM,,,,0.675
COC1CC(OS(=O)(=O)c2ccc([N+](=O)[O-])cc2)C(OC(=O)c2ccccc2)C(C)O1 (stereo not given),,> 100 µM,,,,,> 100 µM,,,,> 100 µM,,,,> 100 µM,,,> 100,,> 100
O=C(O)CNC(=O)c1ccc(-c2ccccc2)cc1,,> 100 µM,,> 100 µM,,,> 100 µM,,> 100 µM,,> 100 µM,,,,> 100 µM,,> 100 µM,> 100,,> 100
CN(CCCn1c2c(c3ccccc3c1=O)C(=O)c1ccccc1-2)CCCn1c2c(c3ccccc3c1=O)C(=O)c1ccccc1-2,1.66 µM,3.59 µM,1.42 µM,6.26 µM,3.65 µM,0.335 µM,,,,,,1.74 µM,5.21 µM,0.181 µM,0.75 µM,,,12.6,0.242,> 100
